Source: US11000514B2, “Antifungal compounds” (Duke University, priority 2014, dated 2021)

Assays:
Assay type in all cases: cell-based
Asp/Caspo = assay: standardized in vitro susceptibility test, Asp/Caspo; settings: with Caspo
Asp = assay: standardized in vitro susceptibility test, Asp alone (MEC)
C. neo = assay: standardized in vitro susceptibility test, C. neo; settings: yes/no
Candida w/ FLu. = assay: standardized in vitro susceptibility test, Candida w/ FLu.; settings: with FLu.; yes/no

SMILES: CO[C@H]1C[C@@H](C)C/C(C)=C/[C@@H](C/C=C/c2ccc(C(=O)O)cc2)C(=O)C[C@H](O)[C@@H](C)[C@@H](/C(C)=C/[C@@H]2CC[C@@H](O)[C@H](OC)C2)OC(=O)[C@@H]2CCCCN2C(=O)C(=O)[C@]2(O)O[C@H]1[C@@H](OC)C[C@H]2C [Compound 2]
- Active Asp Caspo (Asp/Caspo; yes/no): Yes
- Active Asp alone (MEC) (Asp; yes/no): yes
- Active C. neo (C. neo): yes
- Active Candida w/ FLu. (Candida w/ FLu.): no

SMILES: CCCC/C=C/C[C@@H]1/C=C(\C)C[C@H](C)C[C@H](OC)[C@H]2O[C@@](O)(C(=O)C(=O)N3CCCC[C@H]3C(=O)O[C@H](/C(C)=C/[C@@H]3CC[C@@H](O)[C@H](OC)C3)[C@H](C)[C@@H](O)CC1=O)[C@H](C)C[C@@H]2OC [Compound 3]
- Active Asp Caspo (Asp/Caspo; concentration): 4 µg/mL
- Active Asp Caspo (Asp/Caspo; yes/no): yes
- Active Asp alone (MEC) (Asp; yes/no): no
- Active C. neo (C. neo): yes
- Active Candida w/ FLu. (Candida w/ FLu.): yes

SMILES: CCC(C)C/C=C/C[C@@H]1/C=C(\C)C[C@H](C)C[C@H](OC)[C@H]2O[C@@](O)(C(=O)C(=O)N3CCCC[C@H]3C(=O)O[C@H](/C(C)=C/[C@@H]3CC[C@@H](O)[C@H](OC)C3)[C@H](C)[C@@H](O)CC1=O)[C@H](C)C[C@@H]2OC (some centres unmarked) [Compound 4]
- Active Asp Caspo (Asp/Caspo; concentration): 8 µg/mL
- Active Asp Caspo (Asp/Caspo; yes/no): yes
- Active Asp alone (MEC) (Asp; yes/no): no
- Active C. neo (C. neo): yes
- Active Candida w/ FLu. (Candida w/ FLu.): yes

SMILES: CO[C@H]1C[C@@H](C)C/C(C)=C/[C@@H](C/C=C/CC(=O)O)C(=O)C[C@H](O)[C@@H](C)[C@@H](/C(C)=C/[C@@H]2CC[C@@H](O)[C@H](OC)C2)OC(=O)[C@@H]2CCCCN2C(=O)C(=O)[C@]2(O)O[C@H]1[C@@H](OC)C[C@H]2C [Compound 5]
- Active Asp Caspo (Asp/Caspo; concentration): 1 µg/mL
- Active Asp Caspo (Asp/Caspo; yes/no): yes
- Active Asp alone (MEC) (Asp; MEC concentration): (8 ug/mL)
- Active Asp alone (MEC) (Asp; yes/no): yes
- Active C. neo (C. neo): yes
- Active Candida w/ FLu. (Candida w/ FLu.): yes
